From patent EP0986381B1, “USE OF DITERPENES LIKE HYPOESTOXIDES FOR THE MANUFACTURE OF A MEDICAMENT FOR IMMUNOSUPPRESSION, ANTICANCER AND ANTIVIRAL TREATMENT” (Immune Modulation, Inc., priority 1997, dated 1998)
pIC50: −log10 of the molar value.

Legend:
[1] = tested on: B16-F1 melanoma tumor; assay: B16-F1 melanoma tumor growth and survival in mice; type: in vivo, C57BL/6 (B6) mice; settings: for survival of mice: day 28
Method: The following materials and methods were employed in the non-limiting Examples set out below. Tumor cells: Human cervical epitheloid carcinoma (HeLa), human renal clear cell carcinoma (CAKI-1), human malignant melanoma (RPMI-7951) and mouse malignant melanoma (B16-F1) were procured from ATCC (Rockville, MD) and maintained in vitro with MEM medium (Mediatech, Inc., Herndon, VA) supplemented with 10% heat-inactivated fetal bovine serum (American Qualex, San Clemente, CA), 10mM glutamine, 100 U/ml penicillin, and 100 µg/ml streptomycin (Sigma Chemicals, Saint Louis, MO) (complete medium). Normal cells: Normal human cervical ectoepithelial cells (CrEc-Ec), normal human mammary epithelial cells (HMEC) and normal human umbilical vein endothelial cells (HUVEC) were obtained from Clonetics (San Diego, CA) and cultured with the respective recommended tissue culture medium obtained from Clonetics. Peripheral Blood Mononuclear cells (PBMC): Heparinized venous blood was obtained from healthy adult volunteers and PBMC were separated by centrifugation over Ficoll-Hypaque (Pharmacia Biotech, Piscataway, NJ). The cells were washed three times with HBSS (Hanks Balanced Salt Solution) and finally resuspended in complete medium. Cell viability was assessed by trypan blue dye exclusion test and the cell number was adjusted to required concentration. Colorimetric MTT assay: Cytotoxic effects of the hypoestoxide compounds of formulas I and II (JO-4A) were determined in vitro by a colorimetric assay (Mosmann, T., J. Immunol. Methods, 65: 55-63, 1983). Briefly, 1000 cells per well (100 µl) in a 96-well flat-bottom plate were cultured either with the culture medium alone or with various concentrations of drug at 37°C, in a 5% CO2-95% air humidified incubator for 72 hours. At the end of the culture, 10 µl of 5 mg/ml sterile solution of 3-(4,5-Dimethylthiazol-2yl)-2,5-diphenyltetrazolium bromide (MTT) (Sigma Chemicals, Saint Louis, MO) in PBS was added per well and the incubation was resumed for an additional 4 hours. Acid-isopropanol (100 µl of 0.04 N HCl in isopropanol) was added to all wells and kept at room temperature for 30 minutes. Mixing with a multichannel pipetter dissolved the dark blue crystals and the absorbance was measured at 545-650 nm using an ELISA plate reader. Mice: Eight-week-old female C57BL/6 (B6) mice were purchased from Charles River Laboratories (Wilmington, MA. The measurement of tumor volume in mice: B16-F1 melanoma cells growing exponentially in vitro were harvested by 15 minutes incubation with 0.25% trypsin-EDTA solution (Irvin Scientific, Irvine, CA). The mice were given subcutaneous (s.c.) injections of 50,000 viable cells on the right side (Fidler, I. J. Cancer Research 35:218-224, 1975). Four days after injection, the mice in the experimental group were gavaged orally with various concentrations of JO-4A in 0.2 ml of water and the control group received water alone. The tumors were measured with a microcaliper, and the tumor volume was calculated by the formula: Length x width x height x 0.5236 (Jungwirth, A. et al., Proc. Natl. Acad. Sci. USA, 94:5810-5813, 1997). Statistical analysis: Students' t-test was used to calculate the level of significance.

[2] = tested on: HIV-1 isolate from a patient; assay: In vitro HIV-1 replication assay in PBMC, p24 antigen EIA; type: cell-based, Human Immunodeficiency Virus type 1; settings: Human immunodeficiency virus 1, 168 h, PHA-activated human PBMC, 7 days
Method: In Vitro HIV-1 Replication Assay: A standardized peripheral blood mononuclear cell culture assay for the determination of drug susceptibilities of clinical human HIV-1 isolates was utilized (Japour AJ et al. Antimicro Agents Chemother 1993; 37:1095-1101). Peripheral blood mononuclear cells (2 x 10^6 cells/ml) were stimulated with PHA (5 µg/ml) in complete culture medium at 37°C, in a 5% CO2-95% air-humidified incubator for 72 hours. The 3-day-old PHA-stimulated PBMC was sedimented at 400 g for 10 min at 20-24°C. Supernatant was removed and discarded. The cells were resuspended in complete culture medium supplemented with 3% IL-2. Cell viability was determined with 0.4% trypan blue. Viability was greater than 85%. Cell concentration was adjusted to 4x10^6/ml. Cells were dispensed in 50 µl volumes (2x10^5/well) into 96 well microtiter plates containing 50 µl complete culture medium. HIV-1 infected cultures were initiated with a patient's HIV-1 isolate (50 µl/well) at a multiplicity of infection (MOI) of 0.05 and 0.1 respectively. JO-4A was added to wells in 50 µl volumes at varying concentrations (0.0001 µM - 0.5 µM). The plates were incubated at 37°C and 5% CO2 in humidified chamber for 7 days. On day 4, half of the spent medium (100 µl) was discarded, and 50 µl of fresh complete medium and 50 µl of fresh JO-4A (varying concentrations as above) were added to wells containing spent JO-4A. […]

Compound `C=C1C(=O)CC2CC3OC3(C)CCC3OC3(C)CC(O)C1C2(C)C` (stereo not shown) [JO-4A] has a survival of mice ([1]; 0.1 mg/Kg orally daily day 4 to day 20) of 17%, a survival of mice ([1]; 0.5 mg/Kg orally daily day 4 to day 20) of 60% and a survival of mice ([1]; 1 mg/Kg orally daily day 4 to day 20) of 67%. For the same compound, the survival of mice ([1]; 2 mg/Kg orally daily day 4 to day 20) was 84%, the “survival compared with non-treated group” value ([1]; 2 mg/Kg orally, treatment stopped on day 20) was “survived longer” and the tumor volume ([1]; oral, daily from day 4 post tumor implantation, all four concentrations tested, measured day 12) was “significantly reduced”. It also gave a pIC50 [2] of 8.00 to 10.00.
